Test results published in the NIST ThermoML archive (doi:10.1016/j.fluid.2005.08.018).
Where “and” joins values, the source holds several entries; their conditions need not be identical. Equal values may be shown once.

Assay: activity coefficient (dimensionless); of the first substance listed, at infinite dilution; xn = mol fraction of the nth substance listed
Conditions: Liquid, x1 = 0

CCCCO [butan-1-ol] + O
Conditions	activity coefficient
273.35 K, headspace analysis	32.6
283.15 K, headspace analysis	40.4
293.15 K, headspace analysis	48.4
303.15 K, comparative tensimetry	53.4
308.15 K, comparative tensimetry	57.2
313.15 K, comparative tensimetry	58.9
318.15 K, comparative tensimetry	60.2
323.15 K, comparative tensimetry	61.5
323.15 K, headspace analysis	58.7 and 59.4
328.15 K, comparative tensimetry	62.8
333.15 K, comparative tensimetry	63.4
372.15 K, circulating still method	56.1

CCO [ethanol] + O
Conditions	activity coefficient
273.35 K, headspace analysis	2.54
283.15 K, headspace analysis	3.13
303.15 K, comparative tensimetry	4.14
308.15 K, comparative tensimetry	4.43
313.15 K, comparative tensimetry	4.66
318.15 K, comparative tensimetry	4.85
323.15 K, comparative tensimetry	5.03
328.15 K, comparative tensimetry	5.2
333.15 K, comparative tensimetry	5.3
358.15 K, circulating still method	5.9
363.15 K, circulating still method	6
368.15 K, circulating still method	6.1
372.15 K, circulating still method	6.2

CO [methanol] + O
Conditions	activity coefficient
273.35 K, headspace analysis	1.23
283.15 K, headspace analysis	1.4
293.15 K, headspace analysis	1.55
303.15 K, comparative tensimetry	1.71
308.15 K, comparative tensimetry	1.8
313.15 K, comparative tensimetry	1.88
318.15 K, comparative tensimetry	1.95
323.15 K, comparative tensimetry	2.02
328.15 K, comparative tensimetry	2.09
333.15 K, comparative tensimetry	2.16
358.15 K, circulation still method	2.31
363.15 K, circulation still method	2.38
368.15 K, circulation still method	2.41
372.15 K, circulation still method	2.4

CCCCCO [pentan-1-ol] + O
Conditions	activity coefficient
273.35 K, headspace analysis	121
283.15 K, headspace analysis	156
293.15 K, headspace analysis	184
303.15 K, inert gas stripping	203
313.15 K, inert gas stripping	221
323.15 K, inert gas stripping	230
333.15 K, Rayleigh distillation	221
343.15 K, Rayleigh distillation	206
353.15 K, circulating still method	203
363.15 K, circulating still method	181
371.15 K, circulating still method	169

CCCO [propan-1-ol] + O
Conditions	activity coefficient
273.35 K, headspace analysis	8.9
283.15 K, headspace analysis	11.2
293.15 K, headspace analysis	13.5
303.15 K, comparative tensimetry	15.3
308.15 K, comparative tensimetry	16.1
313.15 K, comparative tensimetry	16.7
318.15 K, comparative tensimetry	17.5
323.15 K, comparative tensimetry	18.1
328.15 K, comparative tensimetry	18.6
333.15 K, comparative tensimetry	19
358.15 K, circulating still method	20.1
363.15 K, circulating still method	19.5
368.15 K, circulating still method	18.7
372.15 K, circulating still method	18.9
